We go through one compound from paper PMC11148078, “Potent activity of polymyxin B is associated with long-lived super-stoichiometric accumulation mediated by weak-affinity binding to lipid A” (Nature Communications, 2024).

The test system of the experiment is resistant-OMVs. Put plainly: Three-state model fit to SPR titration, resistant-OMVs. In kind it is binding, E. coli. Conditions: resistant-OMV. The source says:
To estimate binding constants, the three-state model was fit to binding curve titrations (Fig. 5A, B, and Table 2). Briefly, the SPR response curves of polymyxin B binding wt-OMVs (Fig. 5A) or resistant OMVs (Fig. 5B) were globally fit to Eqn. (1) by non-linear regression coupled to numerical integration of the associated ordinary differential equations (see Supplementary Information Section 2A), which define the time-dependent concentrations of each species.1 Response(t)=([PMBL]t+[nPMBL]t+2*[tPMB]t+m.[cPMB]t).MW.G.
Section 2A - Formulation of three-state model for fitting SPR data
The three-state model (Fig. 4) was formulated as a set of coupled ordinary differential equations (ODEs), with eight binding rate constants (k1-8) governing the rates of interchange of each species.
Forward rate constants k7 and k9 were eliminated from the equation set as formation of transient species tPMB and LL are irreversible.
Time at Injection 1 start = 0 s
Sample contact time = 30 s
Dissociation time interval = 35 s
Mass transport rate = kt = 46.5 1/s
Initial Species Concentrations
Coupled ODEs of Three-State Model d[L]/dt = -(k1.[PMB].[L] - k2.[PMBL])+2*k10.[LL] (S8) d[PMB]/dt = -(k1.[PMB].[L] - k2.[PMBL]) + kt’.([PMBi](t) –[PMB]) (S9) d[PMBL]/dt = (k1.[PMB]*[L] - k2.[PMBL])-(k3.[PMBL].[n] - k4.[nPMBL] ) (S10) d[n]/dt = -(k3.[PMBL].[n] - k4.[nPMBL] ) (S11) d[nPMBL]/dt = (k3.[PMBL].[n] - k4.[nPMBL])-2.(k5.[nPMBL].[nPMBL] - k6.[tPMB].[LL] ) (S12) d[tPMB]/dt = (k5.[nPMBL].[nPMBL] - k6.[tPMB].[LL] ) – k8.[tPMB] (S13) d[cPMB]/dt = 2*k8.[tPMB] (S14) d[LL]/dt = (k5.[nPMBL].[nPMBL] – k6.[tPMB].[LL]) – k10.[LL] (S15)
The initial concentrations of each species were as follows
[PMB]t=0 = [PMBL]t=0 = [nPMBL]t=0 = [tPMB]t=0 = [LL]t=0 = [cPMB]t=0 = 0 [L]t=0 = [n]t=0 = 1.56 x 10-4 (units, M) kt’ (units, m/s) was already defined in SI Section 1A. [PMBi](t) is the injected concentration profile and [PMB]t is the concentration profile at the sensing surface. [PMBi](t) follows a serial-doubling concentration of injected analyte, with a concentration profile defined by a serial step function, where each injection step represents a discrete concentration followed by a dissociation step without injected analyte and this is repeated for each concentration in the SCK dosing series.
Kintek Explorer V9.5 was used to build and fit the three-state model. This program employs its own numerical integrator9, which reports the change in concentration of each species over time.
The SPR responses for concentrations of each accumulating PMB-species estimated from Eqn (8 - 15) are summed over time in Eqn (1), repeated here.
Response(t) = ([PMBL]t+[nPMBL]t+2*[tPMB]t+m.[cPMB]t).MW.G. Eqn (1)
The concentration of [tPMB]t is multiplied by two to account for its additional mass, being composed of two PMB molecules. […]

Bridge positions count the residues as written; N and C are the ends. Square brackets hold non-standard residues; d marks the D form. Peptide text beside a SMILES is read from it. * marks the point of attachment. X1 = CC[C@H](C)CCCCC(=O)*; Dab = NCC[C@H](N)C(=O)O

Where the note is “first two states, max 625 nM”, `CC[C@H](C)CCCCC(=O)N[C@@H](CCN)C(=O)N[C@H](C(=O)N[C@@H](CCN)C(=O)N[C@H]1CCNC(=O)[C@H]([C@@H](C)O)NC(=O)[C@H](CCN)NC(=O)[C@H](CCN)NC(=O)[C@H](CC(C)C)NC(=O)[C@@H](Cc2ccccc2)NC(=O)[C@H](CCN)NC1=O)[C@@H](C)O` [Polymyxin B] (X1-[Dab]T[Dab][Dab][Dab][dF]L[Dab][Dab]T; lactam 4-C (inferred); N-terminus assumed) had a k3 of 335 M⁻¹ s⁻¹ and a k4 of 0.0085 s⁻¹. Also, under “fitted, first two states, max 625 nM, read-out: KD = k2/k1”, the Kd turned out to be 268 nM. The same compound showed a kt (mass transport rate) of 44.6 ms^−1.
